Calls of active or inactive are those of the source. No cut-off for these calls is given here.
Experiments:
Fruit [1] = test: Drug level in fruits of Brassica oleracea (Broccoli) seedlings grown in hydroponic culture containing compound at 1 mg/L in presence of 1 mg/L CdCl2 assessed as SeMet level measured after 40 days after compound treatment; format: ADME; details: 960 h
Leaf [2] = test: Drug level in leaves of Brassica oleracea (Broccoli) seedlings grown in hydroponic culture containing compound at 1 mg/L assessed as SeMet level measured after 40 days after compound treatment; format: ADME; details: 960 h
Leaf [3] = test: Drug level in leaves of Brassica oleracea (Broccoli) seedlings grown in hydroponic culture containing compound at 1 mg/L in presence of 1 mg/L CdCl2 assessed as SeMetSeCys level measured after 40 days after compound treatment; format: ADME; details: 960 h
Leaf [4] = test: Effect on cadmium level in leaves of Brassica oleracea (Broccoli) seedlings grown in hydroponic culture containing 1 mg/L measured after 40 days after compound treatment; format: ADME; details: 960 h
Fruit [5] = test: Drug level in fruits of Brassica oleracea (Broccoli) seedlings grown in hydroponic culture containing 1 mg/L in presence of 1 mg/L CdCl2 measured after 40 days after compound treatment; format: ADME; details: 960 h
Fruit [6] = test: Effect on cadmium level in fruits of Brassica oleracea (Broccoli) seedlings grown in hydroponic culture containing 1 mg/L measured after 40 days after compound treatment; format: ADME; details: 960 h
Brassica oleracea [7] = test: Protective effect against cadmium-induced toxicity in Brassica oleracea (Broccoli) seedlings grown in hydroponic culture containing compound at 1 mg/L in presence of 1 mg/L CdCl2 assessed as reduction in MDA level after 30 days after compound treatment by spectrophotometry; format: functional, organism-based
Root [8] = test: Drug level in roots of Brassica oleracea (Broccoli) seedlings grown in hydroponic culture containing 1 mg/L in presence of 1 mg/L CdCl2 measured after 40 days after compound treatment; format: ADME; details: 960 h
Fruit [9] = test: Drug level in fruits of Brassica oleracea (Broccoli) seedlings grown in hydroponic culture containing compound at 1 mg/L in presence of 1 mg/L CdCl2 assessed as Se(IV) level measured after 40 days after compound treatment; format: ADME; details: 960 h
Root [10] = test: Effect on cadmium level in roots of Brassica oleracea (Broccoli) seedlings grown in hydroponic culture containing 1 mg/L measured after 40 days after compound treatment; format: ADME; details: 960 h
Fruit [11] = test: Drug level in fruits of Brassica oleracea (Broccoli) seedlings grown in hydroponic culture containing 1 mg/L measured after 40 days after compound treatment; format: ADME; details: 960 h
Leaf [12] = test: Drug level in leaves of Brassica oleracea (Broccoli) seedlings grown in hydroponic culture containing compound at 1 mg/L in presence of 1 mg/L CdCl2 assessed as SeMet level measured after 40 days after compound treatment; format: ADME; details: 960 h
Fruit [13] = test: Drug level in fruits of Brassica oleracea (Broccoli) seedlings grown in hydroponic culture containing compound at 1 mg/L in presence of 1 mg/L CdCl2 assessed as SeMetSeCys level measured after 40 days after compound treatment; format: ADME; details: 960 h
Root [14] = test: Drug level in roots of Brassica oleracea (Broccoli) seedlings grown in hydroponic culture containing compound at 1 mg/L assessed as Se(IV) level measured after 40 days after compound treatment; format: ADME; details: 960 h
Leaf [15] = test: Drug level in leaves of Brassica oleracea (Broccoli) seedlings grown in hydroponic culture containing compound at 1 mg/L assessed as SeMetSeCys level measured after 40 days after compound treatment; format: ADME; details: 960 h
Root [16] = test: Drug level in roots of Brassica oleracea (Broccoli) seedlings grown in hydroponic culture containing 1 mg/L measured after 40 days after compound treatment; format: ADME; details: 960 h
Root [17] = test: Drug level in roots of Brassica oleracea (Broccoli) seedlings grown in hydroponic culture containing compound at 1 mg/L in presence of 1 mg/L CdCl2 assessed as SeMetSeCys level measured after 40 days after compound treatment; format: ADME; details: 960 h
Brassica oleracea [18] = test: Effect on chlorophyll level assessed per dry weight in Brassica oleracea (Broccoli) seedlings grown in hydroponic culture containing compound at 1 mg/L after 10 days after compound treatment (reference value: 200 +/- 26 mg/kg); format: functional
Leaf [19] = test: Effect on cadmium level in leaves of Brassica oleracea (Broccoli) seedlings grown in hydroponic culture containing 1 mg/L in presence of 1 mg/L CdCl2 measured after 40 days after compound treatment; format: ADME; details: 960 h
Root [20] = test: Drug level in roots of Brassica oleracea (Broccoli) seedlings grown in hydroponic culture containing compound at 1 mg/L in presence of 1 mg/L CdCl2 assessed as Se(IV) level measured after 40 days after compound treatment; format: ADME; details: 960 h
Fruit [21] = test: Effect on cadmium level in fruits of Brassica oleracea (Broccoli) seedlings grown in hydroponic culture containing 1 mg/L in presence of 1 mg/L CdCl2 measured after 40 days after compound treatment; format: ADME; details: 960 h
Leaf [22] = test: Drug level in leaves of Brassica oleracea (Broccoli) seedlings grown in hydroponic culture containing compound at 1 mg/L assessed as Se(IV) level measured after 40 days after compound treatment; format: ADME; details: 960 h
Root [23] = test: Drug level in roots of Brassica oleracea (Broccoli) seedlings grown in hydroponic culture containing compound at 1 mg/L assessed as SeMetSeCys level measured after 40 days after compound treatment; format: ADME; details: 960 h
Brassica oleracea [24] = test: Protective effect against cadmium-induced toxicity in Brassica oleracea (Broccoli) seedlings grown in hydroponic culture containing compound at 1 mg/L in presence of 1 mg/L CdCl2 assessed as chlorophyll level assessed per dry weight after 10 days after compound treatment by spectrophotometry (reference value: 120 +/- 8 mg/kg dry weight); format: functional
Fruit [25] = test: Drug level in fruits of Brassica oleracea (Broccoli) seedlings grown in hydroponic culture containing compound at 1 mg/L assessed as SeMetSeCys level measured after 40 days after compound treatment; format: ADME; details: 960 h
Brassica oleracea [26] = test: Effect on chlorophyll level assessed per dry weight in Brassica oleracea (Broccoli) seedlings grown in hydroponic culture containing compound at 1 mg/L after 40 days after compound treatment (reference value: 181 +/- 23 mg/kg); format: functional
Root [27] = test: Drug level in roots of Brassica oleracea (Broccoli) seedlings grown in hydroponic culture containing compound at 1 mg/L assessed as SeMet level measured after 40 days after compound treatment; format: ADME; details: 960 h
Fruit [28] = test: Drug level in fruits of Brassica oleracea (Broccoli) seedlings grown in hydroponic culture containing compound at 1 mg/L assessed as SeMet level measured after 40 days after compound treatment; format: ADME; details: 960 h
Leaf [29] = test: Drug level in leaves of Brassica oleracea (Broccoli) seedlings grown in hydroponic culture containing 1 mg/L in presence of 1 mg/L CdCl2 measured after 40 days after compound treatment; format: ADME; details: 960 h
Fruit [30] = test: Drug level in fruits of Brassica oleracea (Broccoli) seedlings grown in hydroponic culture containing compound at 1 mg/L assessed as Se(IV) level measured after 40 days after compound treatment; format: ADME; details: 960 h
Brassica oleracea [31] = test: Protective effect against cadmium-induced toxicity in Brassica oleracea (Broccoli) seedlings grown in hydroponic culture containing compound at 1 mg/L in presence of 1 mg/L CdCl2 assessed as attenuation of reduction in tocopherol level after 40 days after compound treatment by spectrophotometry; format: functional; design: scale not given: the % may be the effect or the level left
Brassica oleracea [32] = test: Reduction in MDA level in Brassica oleracea (Broccoli) seedlings grown in hydroponic culture containing compound at 1 mg/L after 30 days after compound treatment; format: functional, organism-based
Brassica oleracea [33] = test: Protective effect against cadmium-induced toxicity in Brassica oleracea (Broccoli) seedlings grown in hydroponic culture containing compound at 1 mg/L in presence of 1 mg/L CdCl2 assessed as chlorophyll level assessed per dry weight after 40 days after compound treatment by spectrophotometry (reference value: 118 +/- 12 mg/kg dry weight); format: functional
Root [34] = test: Drug level in roots of Brassica oleracea (Broccoli) seedlings grown in hydroponic culture containing compound at 1 mg/L in presence of 1 mg/L CdCl2 assessed as SeMet level measured after 40 days after compound treatment; format: ADME; details: 960 h
Brassica oleracea [35] = test: Effect on tocopherol level in Brassica oleracea (Broccoli) seedlings grown in hydroponic culture containing compound at 1 mg/L after 40 days after compound treatment; format: functional, organism-based
Leaf [36] = test: Drug level in leaves of Brassica oleracea (Broccoli) seedlings grown in hydroponic culture containing compound at 1 mg/L in presence of 1 mg/L CdCl2 assessed as Se(IV) level measured after 40 days after compound treatment; format: ADME; details: 960 h
Root [37] = test: Effect on cadmium level in roots of Brassica oleracea (Broccoli) seedlings grown in hydroponic culture containing 1 mg/L in presence of 1 mg/L CdCl2 measured after 40 days after compound treatment; format: ADME; details: 960 h
Leaf [38] = test: Drug level in leaves of Brassica oleracea (Broccoli) seedlings grown in hydroponic culture containing 1 mg/L measured after 40 days after compound treatment; format: ADME; details: 960 h

## O=[Se]([O-])[O-].[Na+].[Na+] [SODIUM SELENITE]
Fruit [1]
  Drug uptake: 0.24 mg/kg
Leaf [2]
  Drug uptake: 0.59 mg/kg
Leaf [3]
  Drug uptake: 0.65 mg/kg
Leaf [4]
  Activity: 0.2 mg/kg
Fruit [5]
  Drug uptake: 10 mg/kg
Fruit [6]
  Activity: 0.4 mg/kg
Brassica oleracea [7]
  Activity: Active
Root [8]
  Drug uptake: 21 mg/kg
Fruit [9]
  Drug uptake: 0.039 mg/kg
Root [10]
  Activity: 0.36 mg/kg
Fruit [11]
  Drug uptake: 27 mg/kg
Leaf [12]
  Drug uptake: 0.62 mg/kg
Fruit [13]
  Drug uptake: 6.5 mg/kg
Root [14]
  Drug uptake: 1.4 mg/kg
Leaf [15]
  Drug uptake: 0.71 mg/kg
Root [16]
  Drug uptake: 20 mg/kg
Root [17]
  Drug uptake: 3.4 mg/kg
Brassica oleracea [18]
  Activity: 155 mg/kg
Leaf [19]
  Activity: 7.5 mg/kg
Root [20]
  Drug uptake: 1.6 mg/kg
Fruit [21]
  Activity: 48 mg/kg
Leaf [22]
  Drug uptake: 0.082 mg/kg
Root [23]
  Drug uptake: 3.6 mg/kg
Brassica oleracea [24]
  Activity: 177 mg/kg
Fruit [25]
  Drug uptake: 12.3 mg/kg
Brassica oleracea [26]
  Activity: 148 mg/kg
Root [27]
  Drug uptake: 6.1 mg/kg
Fruit [28]
  Drug uptake: 7.2 mg/kg
Leaf [29]
  Drug uptake: 1.54 mg/kg
Fruit [30]
  Drug uptake: 1.89 mg/kg
Brassica oleracea [31]
  Activity: 40%
Brassica oleracea [32]
  Activity: Active
Brassica oleracea [33]
  Activity: 175 mg/kg
Root [34]
  Drug uptake: 5.4 mg/kg
Brassica oleracea [35]
  Activity: Active
Leaf [36]
  Drug uptake: 0.09 mg/kg
Root [37]
  Activity: 53 mg/kg
Leaf [38]
  Drug uptake: 2 mg/kg

Source: ChEMBL document CHEMBL3045670, “Protective effect of selenium in Broccoli (Brassica oleracea) plants subjected to cadmium exposure” (J Agric Food Chem, 2008)
